Columns and labels:
Assay in all cases: KINOMEscan competition binding
Conditions in all cases: compound 10.0 µM
BLK (human) = BLK (human) (UniProt P51451)
BMPR1B (human) = BMPR1B (human) (UniProt O00238)
CAMK1G (human) = CAMK1G (human) (UniProt Q96NX5)
CHEK1 (human) = CHEK1 (human) (UniProt O14757)
CLK1 (human) = CLK1 (human) (UniProt P49759)
CSNK1G3 (human) = CSNK1G3 (human) (UniProt Q9Y6M4)
DAPK3 (human) = DAPK3 (human) (UniProt O43293)
DCLK2 (human) = DCLK2 (human) (UniProt Q8N568)
[1] = test system: EGFR (human), P00533 [747-751 del / S ins]
EPHA5 (human) = EPHA5 (human) (UniProt P54756)
EPHB2 (human) = EPHB2 (human) (UniProt P29323)
FGFR3 (human) = FGFR3 (human) (UniProt P22607)
GSK3B (human) = GSK3B (human) (UniProt P49841)
HIPK1 (human) = HIPK1 (human) (UniProt Q86Z02)
KDR (human) = KDR (human) (UniProt P35968)
LATS2 (human) = LATS2 (human) (UniProt Q9NRM7)
MAP2K1 (human) = MAP2K1 (human) (UniProt Q02750)
MAP3K4 (human) = MAP3K4 (human) (UniProt Q9Y6R4)
MAP4K3 (human) = MAP4K3 (human) (UniProt Q8IVH8)
MAPK10 (human) = MAPK10 (human) (UniProt P53779)
MAPK7 (human) = MAPK7 (human) (UniProt Q13164)
MKNK1 (human) = MKNK1 (human) (UniProt Q9BUB5)
PAK4 (human) = PAK4 (human) (UniProt O96013)
PIM3 (human) = PIM3 (human) (UniProt Q86V86)
PKN1 (human) = PKN1 (human) (UniProt Q16512)
PLK3 (human) = PLK3 (human) (UniProt Q9H4B4)
PRKCD (human) = PRKCD (human) (UniProt Q05655)
PRKD1 (human) = PRKD1 (human) (UniProt Q15139)
PTK2 (human) = PTK2 (human) (UniProt Q05397)
RAF1 (human) = RAF1 (human) (UniProt P04049)
ROCK2 (human) = ROCK2 (human) (UniProt O75116)
TNK1 (human) = TNK1 (human) (UniProt Q13470)
TNNI3K (human) = TNNI3K (human) (UniProt Q59H18)
ULK1 (human) = ULK1 (human) (UniProt O75385)
ULK3 (human) = ULK3 (human) (UniProt Q6PHR2)
WEE2 (human) = WEE2 (human) (UniProt P0C1S8)
Sequence of WEE2 (human) (P0C1S8 whole entry, looked up): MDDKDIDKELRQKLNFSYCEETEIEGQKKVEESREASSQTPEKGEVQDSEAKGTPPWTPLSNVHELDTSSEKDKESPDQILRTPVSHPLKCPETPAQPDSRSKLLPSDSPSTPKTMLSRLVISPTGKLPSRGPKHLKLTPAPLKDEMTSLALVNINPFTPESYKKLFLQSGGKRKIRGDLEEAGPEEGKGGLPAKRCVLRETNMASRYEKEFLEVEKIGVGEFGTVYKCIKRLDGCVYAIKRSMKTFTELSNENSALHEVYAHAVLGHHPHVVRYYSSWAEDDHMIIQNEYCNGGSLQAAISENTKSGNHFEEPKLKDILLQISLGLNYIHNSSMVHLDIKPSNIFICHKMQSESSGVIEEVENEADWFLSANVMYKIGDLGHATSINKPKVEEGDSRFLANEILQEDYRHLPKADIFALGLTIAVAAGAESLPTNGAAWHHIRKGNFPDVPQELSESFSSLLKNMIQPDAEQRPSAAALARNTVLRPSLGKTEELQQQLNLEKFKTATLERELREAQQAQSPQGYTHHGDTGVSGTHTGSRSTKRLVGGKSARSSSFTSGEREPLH

Sequence of GSK3B (human) (P49841 whole entry, looked up): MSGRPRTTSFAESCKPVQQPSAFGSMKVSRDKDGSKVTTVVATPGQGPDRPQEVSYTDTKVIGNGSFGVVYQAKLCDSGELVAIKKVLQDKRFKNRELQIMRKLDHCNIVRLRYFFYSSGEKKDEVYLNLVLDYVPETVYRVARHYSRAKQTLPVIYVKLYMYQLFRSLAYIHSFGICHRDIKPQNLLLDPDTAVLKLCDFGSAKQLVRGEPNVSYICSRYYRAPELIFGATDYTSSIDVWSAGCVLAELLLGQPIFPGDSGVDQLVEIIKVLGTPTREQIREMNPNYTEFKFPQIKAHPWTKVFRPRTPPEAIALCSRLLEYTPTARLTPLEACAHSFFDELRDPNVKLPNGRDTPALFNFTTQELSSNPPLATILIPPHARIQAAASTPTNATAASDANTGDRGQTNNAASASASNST
Sequence of BMPR1B (human) (O00238 whole entry, looked up): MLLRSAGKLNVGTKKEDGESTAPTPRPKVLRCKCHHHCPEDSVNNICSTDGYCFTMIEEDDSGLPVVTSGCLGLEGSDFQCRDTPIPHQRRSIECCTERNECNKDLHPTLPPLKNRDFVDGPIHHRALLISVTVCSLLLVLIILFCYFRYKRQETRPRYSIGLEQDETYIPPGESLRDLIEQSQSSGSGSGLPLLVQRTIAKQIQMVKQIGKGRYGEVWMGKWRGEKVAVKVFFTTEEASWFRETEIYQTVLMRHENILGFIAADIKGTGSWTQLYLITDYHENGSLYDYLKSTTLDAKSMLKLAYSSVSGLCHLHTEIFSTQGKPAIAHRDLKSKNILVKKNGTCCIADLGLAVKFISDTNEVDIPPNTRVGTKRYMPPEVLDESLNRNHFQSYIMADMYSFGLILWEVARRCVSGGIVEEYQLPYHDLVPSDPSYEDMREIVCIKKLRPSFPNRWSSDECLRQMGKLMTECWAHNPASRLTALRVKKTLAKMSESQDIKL
Sequence of MAPK10 (human) (P53779 whole entry, looked up): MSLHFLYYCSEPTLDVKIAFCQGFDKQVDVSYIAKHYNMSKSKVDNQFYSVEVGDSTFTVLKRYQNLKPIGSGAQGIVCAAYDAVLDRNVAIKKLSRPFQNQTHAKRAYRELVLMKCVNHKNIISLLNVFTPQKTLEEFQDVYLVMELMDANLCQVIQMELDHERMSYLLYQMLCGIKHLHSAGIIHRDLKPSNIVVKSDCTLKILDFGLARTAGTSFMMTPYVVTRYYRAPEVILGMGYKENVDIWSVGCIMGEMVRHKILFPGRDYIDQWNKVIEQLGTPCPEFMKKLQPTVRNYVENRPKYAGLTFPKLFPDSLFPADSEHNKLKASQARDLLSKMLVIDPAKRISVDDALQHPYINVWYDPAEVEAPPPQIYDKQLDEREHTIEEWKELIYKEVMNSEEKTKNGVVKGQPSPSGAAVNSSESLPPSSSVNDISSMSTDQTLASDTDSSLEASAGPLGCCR
Sequence of MAP2K1 (human) (Q02750 whole entry, looked up): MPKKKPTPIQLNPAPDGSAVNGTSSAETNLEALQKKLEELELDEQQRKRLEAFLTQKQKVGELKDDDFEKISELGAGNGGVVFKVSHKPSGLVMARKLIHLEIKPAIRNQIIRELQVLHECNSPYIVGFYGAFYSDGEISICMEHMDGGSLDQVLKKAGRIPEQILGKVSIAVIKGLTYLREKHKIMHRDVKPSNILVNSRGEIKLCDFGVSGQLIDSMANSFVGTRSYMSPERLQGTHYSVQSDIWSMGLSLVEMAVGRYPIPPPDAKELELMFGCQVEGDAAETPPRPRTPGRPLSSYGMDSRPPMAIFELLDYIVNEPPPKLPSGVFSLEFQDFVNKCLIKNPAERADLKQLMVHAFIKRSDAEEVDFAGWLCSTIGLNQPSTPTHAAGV
Sequence of PLK3 (human) (Q9H4B4 whole entry, looked up): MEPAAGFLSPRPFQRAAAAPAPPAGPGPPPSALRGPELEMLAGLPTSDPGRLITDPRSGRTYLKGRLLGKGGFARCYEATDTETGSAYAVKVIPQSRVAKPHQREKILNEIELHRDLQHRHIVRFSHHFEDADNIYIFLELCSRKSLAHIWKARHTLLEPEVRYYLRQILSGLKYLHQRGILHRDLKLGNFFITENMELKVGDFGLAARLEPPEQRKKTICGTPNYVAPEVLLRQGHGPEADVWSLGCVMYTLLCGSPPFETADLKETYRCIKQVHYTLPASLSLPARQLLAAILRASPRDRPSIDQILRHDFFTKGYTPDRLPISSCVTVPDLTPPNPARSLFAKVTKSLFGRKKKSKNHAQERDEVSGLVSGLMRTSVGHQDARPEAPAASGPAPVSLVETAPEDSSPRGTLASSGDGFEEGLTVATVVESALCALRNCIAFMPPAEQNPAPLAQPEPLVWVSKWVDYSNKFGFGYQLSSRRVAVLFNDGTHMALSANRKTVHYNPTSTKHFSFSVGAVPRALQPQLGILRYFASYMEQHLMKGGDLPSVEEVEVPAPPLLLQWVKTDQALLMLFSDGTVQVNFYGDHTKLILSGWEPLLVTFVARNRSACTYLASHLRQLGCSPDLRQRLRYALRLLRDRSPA
Sequence of CAMK1G (human) (Q96NX5 whole entry, looked up): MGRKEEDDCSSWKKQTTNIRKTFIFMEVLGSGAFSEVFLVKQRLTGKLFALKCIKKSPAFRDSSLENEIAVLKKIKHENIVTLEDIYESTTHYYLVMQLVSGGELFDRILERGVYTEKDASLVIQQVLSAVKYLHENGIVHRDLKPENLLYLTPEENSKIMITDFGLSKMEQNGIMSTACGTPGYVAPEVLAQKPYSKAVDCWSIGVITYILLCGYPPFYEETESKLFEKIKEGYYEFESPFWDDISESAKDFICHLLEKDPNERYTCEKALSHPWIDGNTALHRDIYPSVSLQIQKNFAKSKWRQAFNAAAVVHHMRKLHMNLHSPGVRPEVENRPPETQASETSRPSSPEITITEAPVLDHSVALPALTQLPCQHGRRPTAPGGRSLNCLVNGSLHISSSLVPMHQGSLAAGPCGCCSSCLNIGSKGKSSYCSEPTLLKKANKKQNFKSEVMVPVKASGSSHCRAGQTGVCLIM
Sequence of PTK2 (human) (Q05397 whole entry, looked up): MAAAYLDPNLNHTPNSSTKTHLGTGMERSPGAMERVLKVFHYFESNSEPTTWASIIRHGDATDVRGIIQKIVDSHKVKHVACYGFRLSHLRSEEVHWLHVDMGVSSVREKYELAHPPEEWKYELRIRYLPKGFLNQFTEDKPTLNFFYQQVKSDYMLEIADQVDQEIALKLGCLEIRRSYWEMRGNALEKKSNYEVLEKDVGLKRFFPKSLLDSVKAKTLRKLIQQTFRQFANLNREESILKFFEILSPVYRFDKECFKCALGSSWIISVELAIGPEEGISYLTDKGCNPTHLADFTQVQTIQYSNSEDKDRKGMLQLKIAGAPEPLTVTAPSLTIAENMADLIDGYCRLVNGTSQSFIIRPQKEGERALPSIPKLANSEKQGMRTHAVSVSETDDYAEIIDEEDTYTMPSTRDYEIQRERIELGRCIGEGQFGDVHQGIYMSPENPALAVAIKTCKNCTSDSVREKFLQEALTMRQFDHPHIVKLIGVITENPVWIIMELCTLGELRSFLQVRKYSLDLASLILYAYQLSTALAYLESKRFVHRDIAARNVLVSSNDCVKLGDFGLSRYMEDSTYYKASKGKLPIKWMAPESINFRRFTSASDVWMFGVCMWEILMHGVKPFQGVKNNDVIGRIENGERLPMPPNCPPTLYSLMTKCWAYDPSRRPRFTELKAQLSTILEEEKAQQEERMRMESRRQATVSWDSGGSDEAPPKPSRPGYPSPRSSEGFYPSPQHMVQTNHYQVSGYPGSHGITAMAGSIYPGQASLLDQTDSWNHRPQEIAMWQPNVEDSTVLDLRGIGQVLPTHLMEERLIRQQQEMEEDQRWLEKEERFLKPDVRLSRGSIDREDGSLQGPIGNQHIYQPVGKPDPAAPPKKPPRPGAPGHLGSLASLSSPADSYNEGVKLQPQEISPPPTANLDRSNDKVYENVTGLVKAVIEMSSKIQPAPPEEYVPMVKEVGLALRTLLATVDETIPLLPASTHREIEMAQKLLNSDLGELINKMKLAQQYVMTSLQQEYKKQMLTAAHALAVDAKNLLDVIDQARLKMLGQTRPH
Sequence of ULK3 (human) (Q6PHR2 whole entry, looked up): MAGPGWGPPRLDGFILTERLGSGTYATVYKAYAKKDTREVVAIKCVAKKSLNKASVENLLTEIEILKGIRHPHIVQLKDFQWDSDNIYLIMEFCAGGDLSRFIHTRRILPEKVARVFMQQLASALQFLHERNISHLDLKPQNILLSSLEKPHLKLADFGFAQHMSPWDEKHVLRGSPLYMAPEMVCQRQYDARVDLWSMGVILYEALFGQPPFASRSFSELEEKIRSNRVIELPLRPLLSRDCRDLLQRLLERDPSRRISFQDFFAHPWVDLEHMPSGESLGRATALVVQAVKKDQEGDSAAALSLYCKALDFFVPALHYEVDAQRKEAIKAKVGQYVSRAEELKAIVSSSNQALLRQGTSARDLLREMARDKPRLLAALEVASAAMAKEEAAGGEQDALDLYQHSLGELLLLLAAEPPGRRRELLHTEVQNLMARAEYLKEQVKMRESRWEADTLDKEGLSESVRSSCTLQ

Row | kinase still bound, per cent of control (BMPR1B (human)) | kinase still bound, per cent of control (CAMK1G (human)) | kinase still bound, per cent of control (CHEK1 (human)) | kinase still bound, per cent of control (CLK1 (human)) | kinase still bound, per cent of control (CSNK1G3 (human)) | kinase still bound, per cent of control (DAPK3 (human)) | kinase still bound, per cent of control (DCLK2 (human)) | kinase still bound, per cent of control (EPHA5 (human)) | kinase still bound, per cent of control (EPHB2 (human)) | kinase still bound, per cent of control (FGFR3 (human)) | kinase still bound, per cent of control (GSK3B (human)) | kinase still bound, per cent of control (KDR (human)) | kinase still bound, per cent of control (LATS2 (human)) | kinase still bound, per cent of control (MAP2K1 (human)) | kinase still bound, per cent of control (MAP3K4 (human)) | kinase still bound, per cent of control (MAP4K3 (human)) | kinase still bound, per cent of control (MAPK10 (human)) | kinase still bound, per cent of control (MAPK7 (human)) | kinase still bound, per cent of control (MKNK1 (human)) | kinase still bound, per cent of control (PAK4 (human)) | Compound | further results
1 | 3.4% | 100% | 100% | 0.15% | 22% | 100% | 100% | 100% | 100% | 18% | 100% | 100% | 100% | 3% | 100% | 1% | 17% | 100% | 100% | 18% | CNC(=O)c1ccc(Nc2cc(Nc3ccccc3S(=O)(=O)C(C)C)c3cc[nH]c3n2)nc1 | kinase still bound, per cent of control (BLK (human)): 0.55%; kinase still bound, per cent of control [1]: 100%; kinase still bound, per cent of control (HIPK1 (human)): 100%; kinase still bound, per cent of control (PIM3 (human)): 100%; kinase still bound, per cent of control (PKN1 (human)): 0%; kinase still bound, per cent of control (PLK3 (human)): 100%; kinase still bound, per cent of control (PRKCD (human)): 15%; kinase still bound, per cent of control (PRKD1 (human)): 100%; kinase still bound, per cent of control (PTK2 (human)): 0%; kinase still bound, per cent of control (RAF1 (human)): 100%; kinase still bound, per cent of control (ROCK2 (human)): 0.95%; kinase still bound, per cent of control (TNK1 (human)): 4%; kinase still bound, per cent of control (TNNI3K (human)): 100%; kinase still bound, per cent of control (ULK1 (human)): 7.2%; kinase still bound, per cent of control (ULK3 (human)): 3.7%; kinase still bound, per cent of control (WEE2 (human)): 100%
2 | 100% | 100% | 100% | 100% | 100% | 100% | 100% | 100% | 100% | 4.5% | 100% | 0.45% | 100% | 100% | 10% | 7.4% | 100% | 9.7% | 100% | 100% | C=CC(=O)Nc1ccc(CN(C(=O)Nc2c(Cl)c(OC)cc(OC)c2Cl)c2cc(Nc3ccc(N4CCN(C)CC4)cc3)ncn2)cc1 | kinase still bound, per cent of control (BLK (human)): 0.1%; kinase still bound, per cent of control [1]: 0.65%; kinase still bound, per cent of control (HIPK1 (human)): 100%; kinase still bound, per cent of control (PIM3 (human)): 100%; kinase still bound, per cent of control (PKN1 (human)): 100%; kinase still bound, per cent of control (PLK3 (human)): 100%; kinase still bound, per cent of control (PRKCD (human)): 100%; kinase still bound, per cent of control (PRKD1 (human)): 100%; kinase still bound, per cent of control (PTK2 (human)): 100%; kinase still bound, per cent of control (RAF1 (human)): 100%; kinase still bound, per cent of control (ROCK2 (human)): 100%; kinase still bound, per cent of control (TNK1 (human)): 28%; kinase still bound, per cent of control (TNNI3K (human)): 100%; kinase still bound, per cent of control (ULK1 (human)): 100%; kinase still bound, per cent of control (ULK3 (human)): 100%; kinase still bound, per cent of control (WEE2 (human)): 100%
3 | 100% | 100% | 100% | 100% | 100% | 100% | 100% | 100% | 100% | 0.05% | 100% | 21% | 100% | 100% | 100% | 100% | 100% | 36% | 100% | 100% | CCN(CC)CCCCNc1ncc2cc(-c3cc(OC)cc(OC)c3)c(NC(=O)NC(C)(C)C)nc2n1 | kinase still bound, per cent of control (BLK (human)): 100%; kinase still bound, per cent of control (PIM3 (human)): 100%; kinase still bound, per cent of control (PKN1 (human)): 100%; kinase still bound, per cent of control (PLK3 (human)): 100%; kinase still bound, per cent of control (PRKCD (human)): 100%; kinase still bound, per cent of control (PRKD1 (human)): 100%; kinase still bound, per cent of control (PTK2 (human)): 100%; kinase still bound, per cent of control (RAF1 (human)): 100%; kinase still bound, per cent of control (TNK1 (human)): 100%; kinase still bound, per cent of control (TNNI3K (human)): 100%

Row | Compound | kinase still bound, per cent of control (BMPR1B (human)) | kinase still bound, per cent of control (CAMK1G (human)) | kinase still bound, per cent of control (CHEK1 (human)) | kinase still bound, per cent of control (CLK1 (human)) | kinase still bound, per cent of control (CSNK1G3 (human)) | kinase still bound, per cent of control (DAPK3 (human)) | kinase still bound, per cent of control (DCLK2 (human)) | kinase still bound, per cent of control (EPHA5 (human)) | kinase still bound, per cent of control (EPHB2 (human)) | kinase still bound, per cent of control (FGFR3 (human)) | kinase still bound, per cent of control (GSK3B (human)) | kinase still bound, per cent of control (KDR (human)) | kinase still bound, per cent of control (LATS2 (human)) | kinase still bound, per cent of control (MAP2K1 (human)) | kinase still bound, per cent of control (MAP3K4 (human)) | kinase still bound, per cent of control (MAP4K3 (human)) | kinase still bound, per cent of control (MAPK10 (human)) | kinase still bound, per cent of control (MAPK7 (human)) | kinase still bound, per cent of control (MKNK1 (human)) | kinase still bound, per cent of control (PAK4 (human)) | further results
4 | Cc1n[nH]c2ccc(-c3cncc(OC[C@@H](N)Cc4c[nH]c5ccccc45)c3)cc12 | 100% | 100% | 100% | 0% | 0.15% | 2.3% | 100% | 100% | 100% | 100% | 1% | 100% | 0% | 100% | 100% | 9.5% | 25% | 100% | 19% | 13% | kinase still bound, per cent of control (HIPK1 (human)): 0.05%; kinase still bound, per cent of control (PIM3 (human)): 0.75%; kinase still bound, per cent of control (PKN1 (human)): 0%; kinase still bound, per cent of control (PLK3 (human)): 100%; kinase still bound, per cent of control (PRKCD (human)): 0.85%; kinase still bound, per cent of control (PRKD1 (human)): 2%; kinase still bound, per cent of control (PTK2 (human)): 100%; kinase still bound, per cent of control (RAF1 (human)): 100%; kinase still bound, per cent of control (ROCK2 (human)): 0%; kinase still bound, per cent of control (TNK1 (human)): 100%; kinase still bound, per cent of control (TNNI3K (human)): 100%; kinase still bound, per cent of control (ULK1 (human)): 22%; kinase still bound, per cent of control (ULK3 (human)): 100%; kinase still bound, per cent of control (WEE2 (human)): 100%
